Values of other authors as cited in US20020028759A1, “Detergent compositions” (Unilever Home & Personal Care USA, Division of Conopco, Inc., priority 1999, published 2002).
Like-named read-outs stand apart in the source and are kept apart here.

Details: 20° C.
[1] = other common materials, by contrast

Row | SMILES | Water Solubility (g/100 g) (highly water-soluble materials) | Water Solubility (g/100 g) [1] [g/100 g]
1 | NC(N)=O [Urea] | >100 | 
2 | O=BO[O-].[Na+] [Sodium perborate anhydrous] |  | 3.7
3 | O=P(O)(O)OP(=O)(O)OP(=O)(O)O [Sodium tripolyphosphate anhydrous] |  | 15
